These results are taken from patent US11696904B2, “Prodrug for therapeutic applications” (The Regents of the University of California, priority 2020, dated 2023).

Series [1] relates to C57BL/6 mice. As to the kind of experiment: Heart rate (ECG telemetry). The note with it: single i.p. dose 10 mg/kg, monitored 10 h, conscious mice. The format is in vivo. From the text:
Heart rate. Male C57BL/6 mice age 4-6 months were surgically implanted with DSI TA-ETAF20 electrocardiographic telemetry devices (Data Sciences International, St. Paul, Minn.) in the mouse's abdominal cavity with biopotential leads sutured in place in the chest wall. The electrocardiographic data was collected and recorded using the PhysioTel telemetry system and Dataquest A.R.T 4.0 software (Data Sciences International). Mice were permitted two week-long recovery after surgery before initiation of baseline telemetry recordings. Heart rate was calculated from ECG data taken in the freely moving, conscious mice. Mice (n=3) were intraperitoneally treated with a single dose of vehicle (0.9% saline or 20% acidified DMSO in 0.9% saline), 10 mg/kg fingolimod, or 155 mg/kg FTY-k-PEG, and heart rate was continuously monitored for 10 h. Mice were rested for two weeks at which point the experiment was repeated with the mice assigned to the alternate group. […]
Avoided bradycardia and lymphopenia in vivo by FTY-k-PEG. To test whether FTY-k-PEG avoids bradycardia, C57BL/6 mice were surgically implanted with an electrocardiographic telemetry device and heart rate was calculated from ECG data taken in the freely moving, conscious mice after intraperitoneal (i.p.) injection of saline, fingolimod, or acid-cleavable FTY-k-PEG (see FIG. 10A). […]

Series [2] relates to circulating B and T lymphocytes. As to the kind of experiment: Lymphocyte sequestration. The format is in vivo, mice. The settings on record: 10 mg/kg (32 μmol/kg) i.p., blood 12 h post-injection, compared to saline or FTY-k-PEG. As to the method:
Lymphocyte sequestration. Female 8-24 week old C57BL6 mice were intraperitoneally injected with vehicle (0.9% saline or 20% acidified DMSO in 0.9% saline), 10 mg/kg (32 μmol/kg) fingolimod, or 155 mg/kg FTY-k-PEG (32 μmol/kg). After 12 h, blood was collected from the retro-orbital sinus under ketamine/xylazine anesthesia. Whole blood (10 μL) was added to 190 μL of ACK red blood cell lysis buffer, the mixture was incubated at ambient temperature for 3-5 min […], and the white blood cells were recovered by centrifugation. Nucleated cells (Hoechst33342-positive) were counted using a hemocytometer to obtain the white blood cell count. Separately, 50 μL of whole blood was added to 1 mL of ACK red blood cell lysis buffer and incubated for 3-5 min at RT. Cells were washed with 2% fetal calf serum (FCS, Atlanta Biologicals (Flowery Branch, Ga.) in PBS with 0.05% NaN3 (Sigma Aldrich (Milwaukee, Wis.)) and red blood cell lysis was repeated. Tubes were decanted and resuspended in 100 μL of 10% FCS in PBS with 0.05% NaN3 and directly conjugated antibodies against B220, CD4, or CD8 (all from Biolegend, San Diego, Calif.) for 30 min on ice. Cells were analyzed on a BD LSR II flow cytometer; the analysis was restricted to live cells (DAPI-negative).
Avoided bradycardia and lymphopenia in vivo by FTY-k-PEG. […]

In series [3] the test system is FL5.12/p190-Luc cells. As to the kind of experiment: In vivo bioluminescence imaging, BCR-Abl-driven leukemogenesis model. The note with it: 32 μmol/kg daily i.p., day 6, Balb/c mice, p<0.01. As to the method:
In vivo bioluminescence imaging. In an immunocompetent syngeneic model, 6-7 weeks old Balb/c female mice were intravenously injected with Ph+FL5.12/p190/Luc cells (1.0×10^5 cells per mouse) in the tail vein. After 5 days, the mice received daily i.p. injections of fingolimod, FTY-k-PEG, FTY-PEG (all at a dose of 32 μmol/kg) or PBS for 5 days (n=5). Mice were placed under anesthesia using isoflurane (Patterson Veterinary, Greeley, Colo.) and interperitoneally injected with 120 mg/kg of synthetic firefly luciferin (Promega, Madison, Wis.) in PBS at a concentration of 20 mg/mL immediately prior to bioluminescence imaging with an IVIS Lumina system (Caliper Life Sciences, Hopkinton, Mass.) for 4 min. Mice were under anesthesia for the entire duration of imaging and bioluminescence signal intensities in mice were quantified using Living Image 3.2 software associated with the imaging system.
Preserved anti-leukemic effect of FTY-k-PEG in vivo. To assess the anti-leukemic effects of FTY-k-PEG in vivo while eliminating bradycardia and immunosuppressive activity, a BCR-Abl-driven leukemogenesis model in which fingolimod is effectively was used. […] The leukemic expansion of FL5.12/p190-Luc cells was assessed by i.p. administration of synthetic firefly luciferin (120 mg/kg) and subsequent bioluminescence imaging (see FIG. 12B-D). […]

A short description of series [4]: DNAge (epigenetic aging clock) analysis. The format is in vivo. The note with it: healthy BALB/c mice, 32 μmol/kg daily i.p., blood two days post-treatment. As to the method: DNAge® (epigenetic aging clock) analysis. Blood samples (100 μL) were collected in triplicate from healthy female BALB/c mice treated as described above. Upon immediate preservation in DNA/RNA Shield™ (Zymo Research, Irvine, Calif.), genomic DNA was purified using Quick-DNA Plus Kit (Zymo Research) as instructed by the manufacturer. Sample library preparation and data analysis for mouse DNAge® (epigenetics aging clock) were performed by service provider (Zymo Research). Briefly, genomic DNA (200 ng) was bisulfite-converted using EZ DNA Methylation_Lightning™ Kit (Zymo Research). Bisulfite-converted DNA libraries for targeted bisulfite sequencing platform, called SWARM® (Simplified Whole-panel Amplification Reaction Method), were sequenced on a HiSeq 1500 sequencer for >1,000× coverage. Sequence reads were identified using Illumina base calling software (San Diego, Calif.) and aligned to the reference genome using Bismark, an aligner optimized for bisulfite sequence data and methylation calling. The methylation level of each sampled cytosine was estimated as the number of reads reporting a C, divided by the total number of reads reporting a C or T. DNA methylation levels of >500 age-related CpG loci were used for age prediction using Zymo Research's proprietary […] DNAge® algorithms: […]

The nature of series [5]: Water solubility of FTY prodrugs. Format: physicochemical. The settings on record: for water solubility: qualitative. An excerpt: Design and synthesis of FTY-k-PEG. Acetals (ketals) were chosen for their structural versatility, facile synthesis, and tunable cleavability under mildly acidic conditions. The endosomal pH of ˜5.0 is an excellent intracellular trigger for drug release from acid-labile drug conjugates. Initial synthetic methodology utilized 2-methoxypropene to generate methyl ketal-functionalized fingolimod (mkFTY) (see FIG. 2). […] To retain the ketal moiety while increasing solubility of the prodrug, N-Fmoc piperidone was used to generate a cyclic ketal in kFTY (7) (see FIG. 3), eliminating the hydrophobic methyl groups and incorporating a secondary amine as a functional handle for further conjugation. The ketal formation was achieved using azeotropic distillation by which constant removal of water efficiently drives the reaction to completion. […] To further increase water solubility, kFTY was conjugated to succinimidyl carboxyl methyl ester polyethylene glycol (SCM-PEG 5 k) prior to trifluoroacetamide (TFA)-deprotection to produce FTY-k-PEG (8). FTY-k-PEG was analyzed by MALDI-TOF to confirm PEGylation and TFA-deprotection (see FIG. 4). […] Other macromolecules may be used for conjugation, and a plethora of stimuli-responsive linkers may be explored to further enhance the specificity and safety of an FTY prodrug. The acid-cleavable ketal linkage can be replaced by other moieties responsive to intrinsic environmental stimuli (redox, pH, etc.), external stimuli (heat, ultrasound, photo-irradiation, electrochemical, magnetic, etc.), or specific biological processes (enzymatic cleavage, ion chelation, etc.), depending the molecular structure of a drug and the stimuli to be utilized for target indication. In addition, a variety of macromolecules can also be used in lieu of PEG, including polysaccharides (i.e., hyaluronic acids), peptides, and various synthetic polymers for improved water-solubility, extended circulation, avoided premature activation, nanoparticle formulation, theranostic applications, combating resistance, and specific targeting. […]

Series [6] deals with nutrient transporter associated protein 4F2hc. As to the kind of experiment: Nutrient transporter expression (surface 4F2hc, flow cytometry). Format: cell-based, murine. The note with it: FL5.12 cells, 3 h treatment, compared to fingolimod. As to the method:
Cell culture. Murine IL-3-dependent proB-cell lymphoid FL5.12 cells and FL5.12/BCR-Abl p190 cells were obtained by gift. FL5.12/p190 cells were transduced to express firefly luciferase by lentiviral vectors purchased from Capital Bioscience (Gaithersberg, Md.). FL5.12/p190 and luciferase-expressing FL5.12/p190 cells (FL5.12/p190/Luc cells) were maintained at 250,000-800,000 cells/mL in RPMI 1640 media containing 10% (v/v) FBS and 1% (v/v) streptomycin-penicillin. FL5.12 cells were cultured in the same media supplemented with 5 ng/mL IL3. All cells were cultured at 37° C. with 5% CO2 and 100% humidity.
Nutrient transporter expression. Surface 4F2hc expression was measured using phycoerythrin (PE)-conjugated rat anti-mouse 4F2hc antibody (BD Pharmingen, San Diego, Calif.); analysis by flow cytomery was restricted to viable cells. PE-conjugated mouse IgG1, k (BD Pharmingen) was used as an isotype control. Cells were analyzed on a BD LSR II flow cytometer (BD Biosciences, San Jose, Calif.) and with FlowJo software (Treestar, Ashland, Oreg.).
To confirm active drug was released selectively upon acid-hydrolysis, drugs were incubated in buffers of pH 7.4 and pH 5.0 prior to incubation with the cells (see FIG. 8). Fingolimod was pre-incubated in the same buffers to rule out the possibility that the buffers would affect drug's activity or contribute to cell apoptosis. […]
(In general: Flow cytometry measures light scatter and fluorescence of single cells or particles in a stream.)

The structures appear in SMILES notation. Some results are limits rather than exact numbers.

In the case of `CCCCCCCCc1ccc(CCC(N)(CO)CO)cc1` [fingolimod, Fingolimod], the “reduction of heart rate” value in series [1] is 50%. For the same compound, the reduction of lymphocytes in series [2] is reported as approximately 60%. Also, the “average bioluminescence signal lower than that of PBS” value in series [3] is reported as 64%. Besides, the epigenetic age entry in series [4] was “significant increase in epigenetic age”.

As to `CCCCCCCCc1ccc(CCC2(N)COC3(CCNCC3)OC2)cc1` [kFTY], in series [5], the “concentration up to which readily soluble in water” value is not above 10000 µM and the water solubility entry is “increased water solubility compared to mkFTY”.

For `CCCCCCCCc1ccc(CCC2(N)COC(C)(C)OC2)cc1` [mkFTY], in series [5], the water solubility entry was “loss of water solubility”. The “down-regulation of surface 4F2hc expression” value in series [6] is “nearly identical efficacy to fingolimod”.
